In ChEMBL document CHEMBL1201862, “PubChem BioAssay data set” (2004):
The source made the active and inactive calls.

Tests used:
[1] = viability of uninfected HEp-2 cells – cell-based, HTS, cytotoxicity control for RSV inhibitor project, dose response (AID 2410); type: functional; conditions: human respiratory syncytial virus
[2] = NIH3T3 cell viability loss – ATP luminescence, mouse fibroblasts, counter-screen, dose response (AID 2010); type: functional, cell-based;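 also: cells exposed to compound for about 90 hours before reading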
[3] = Trypanosoma cruzi growth suppression in host cells – NIH3T3 host cells, beta-gal luminescence, confirmation (AID 2044); type: functional, cell-based;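 also: intracellular parasites grown in NIH/3T3 mouse fibroblasts as host cells; luminescent beta-galactosidase reporter signal from transgenic T. cruzi replicating inside host cells; inhibitors lower the luminescence signal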
[4] = test system: H4; test: Luminescence Cell-Based Dose Response HTS to Identify Activators of 5'UTR Stem-Loop Driven Prion Protein mRNA Translation in H4 Neuroglioblastoma Cells. [Related pubchem assays: 1829 (Project Summary), 1814 (Primary HTS)]; type: functional; conditions: Homo sapiens
[5] = Luminescence Cell-Based Dose Response HTS to Identify Activators of Luciferase Translation or Activity in H4 […] Cells. [Related pubchem assays: 1829 (Project Summary), 1814 (Primary HTS)]; type: functional
[6] = target: T1, Corticotropin-releasing factor receptor 2/Corticotropin-releasing factor-binding protein (Homo sapiens, UniProt P24387+Q13324); test: activators of CRF receptor 2 with binding protein – uHTS hits, confirmation (AID 602473); type: functional; conditions: read-out: EC50_Mean
T1 sequence (Q13324 whole entry): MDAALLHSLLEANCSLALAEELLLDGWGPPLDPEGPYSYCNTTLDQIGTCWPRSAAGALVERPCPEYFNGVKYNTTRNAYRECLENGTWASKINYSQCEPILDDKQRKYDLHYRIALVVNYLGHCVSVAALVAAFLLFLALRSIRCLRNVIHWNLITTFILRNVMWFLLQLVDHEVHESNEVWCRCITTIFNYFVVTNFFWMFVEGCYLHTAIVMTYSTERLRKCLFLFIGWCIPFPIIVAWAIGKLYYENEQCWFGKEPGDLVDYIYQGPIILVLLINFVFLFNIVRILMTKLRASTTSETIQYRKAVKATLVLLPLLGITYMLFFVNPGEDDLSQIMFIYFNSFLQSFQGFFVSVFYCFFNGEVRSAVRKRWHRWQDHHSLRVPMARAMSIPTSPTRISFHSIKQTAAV
T1 sequence (P24387 whole entry): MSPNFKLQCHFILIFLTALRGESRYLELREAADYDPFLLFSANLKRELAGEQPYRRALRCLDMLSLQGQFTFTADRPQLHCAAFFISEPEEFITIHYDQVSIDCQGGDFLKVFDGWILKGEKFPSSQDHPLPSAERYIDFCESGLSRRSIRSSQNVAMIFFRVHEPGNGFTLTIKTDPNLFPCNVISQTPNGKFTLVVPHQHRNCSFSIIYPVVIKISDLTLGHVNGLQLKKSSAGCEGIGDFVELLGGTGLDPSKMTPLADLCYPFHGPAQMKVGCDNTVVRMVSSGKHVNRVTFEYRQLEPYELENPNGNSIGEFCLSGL

[7] = target: Cytochrome P450 2C19 (Homo sapiens, UniProt P33261); test: Cytochrome panel assay with activity outcomes. Panel member name: p450-cyp2c19 Compounds with AC50 equal or less than 10 uM are considered active; type: functional
Sequence of Cytochrome P450 2C19 (P33261 whole entry): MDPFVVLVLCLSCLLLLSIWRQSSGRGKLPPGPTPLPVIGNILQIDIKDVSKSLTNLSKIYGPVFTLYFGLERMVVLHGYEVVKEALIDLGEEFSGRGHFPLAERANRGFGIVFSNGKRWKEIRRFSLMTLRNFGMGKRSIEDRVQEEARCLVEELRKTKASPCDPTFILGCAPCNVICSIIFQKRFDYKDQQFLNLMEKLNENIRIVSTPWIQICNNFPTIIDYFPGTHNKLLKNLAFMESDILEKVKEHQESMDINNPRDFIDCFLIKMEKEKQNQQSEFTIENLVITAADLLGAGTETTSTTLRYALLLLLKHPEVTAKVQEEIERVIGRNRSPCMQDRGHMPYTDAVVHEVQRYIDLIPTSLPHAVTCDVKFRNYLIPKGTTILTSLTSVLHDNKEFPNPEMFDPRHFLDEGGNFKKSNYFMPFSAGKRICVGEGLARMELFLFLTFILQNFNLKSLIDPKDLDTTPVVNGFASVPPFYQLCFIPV

[8] = target: Cytochrome P450 3A4 (Homo sapiens, UniProt P08684);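 also: CYP3A4 tested as one member of a cytochrome P450 panel screen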
Sequence of Cytochrome P450 3A4 (P08684 whole entry): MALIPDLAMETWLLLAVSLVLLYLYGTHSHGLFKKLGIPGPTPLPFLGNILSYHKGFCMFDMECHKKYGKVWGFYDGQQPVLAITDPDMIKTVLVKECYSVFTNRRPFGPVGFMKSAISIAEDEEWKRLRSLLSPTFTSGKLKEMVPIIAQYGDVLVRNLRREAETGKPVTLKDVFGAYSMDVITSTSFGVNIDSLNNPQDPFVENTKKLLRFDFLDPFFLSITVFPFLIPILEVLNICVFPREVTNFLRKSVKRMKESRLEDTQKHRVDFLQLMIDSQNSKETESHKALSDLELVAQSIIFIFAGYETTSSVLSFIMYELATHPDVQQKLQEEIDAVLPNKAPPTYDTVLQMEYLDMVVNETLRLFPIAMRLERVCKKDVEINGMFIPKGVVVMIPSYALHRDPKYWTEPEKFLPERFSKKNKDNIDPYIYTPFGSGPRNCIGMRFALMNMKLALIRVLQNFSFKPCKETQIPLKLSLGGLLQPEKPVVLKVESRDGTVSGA

Q: Which CC50 [1] does the source give for COc1ccccc1NC(=O)N(Cc1ccco1)Cc1cc2cc(C)cc(C)c2nc1O here?
A: 3.83 µM (active)

Q: With CCc1ccccc1OCC(=O)Nc1ccc2c(c1)OCCO2 as the molecule, how does the CC50 [1] read?
A: 35.6 µM (active)

Q: For N#C/C(=C/C=C/c1ccccc1)C(=O)Nc1ccccc1, which EC50 [2] is on record?
A: > 60 µM (not active)

Q: What about the EC50 [3] of the same molecule?
A: 8.82 µM (active)

Q: For Cn1c(N)c(C(=O)Nc2ccc3ccccc3c2)sc1=S, which EC50 [4] is on record?
A: 0.279 µM (active)

Q: And the EC50 [5]?
A: 0.117 µM (active)

Q: With O=C(NCCOc1ccccc1F)c1cccc(S(=O)(=O)N2CCN(c3ccccc3)CC2)c1 as the molecule, how does the CC50 [1] read?
A: 22.2 µM (active)

Q: With COc1ccc(S(=O)(=O)N2CCCCCC2)cc1C(=O)N(C)Cc1ccc(Cl)cc1Cl as the molecule, how does the EC50 [6] read?
A: 5 µM (active)

Q: For CCOC(=O)c1sc2nc3n(c(=O)c2c1C)CCC(C)CC3 (centres undefined), which CC50 [1] is on record?
A: 38.3 µM (active)

Q: With Cc1noc(C)c1-c1nccc(N2CCOCC2)n1 as the molecule, how does the AC50 ([7]; read-out: AC50) read?
A: 10 µM (inconclusive)

Q: Which CC50 [1] does the source give for CCn1nc(NC(=O)COC)c2cc3cccc(C)c3nc21 here?
A: > 50 µM (active)

Q: Which CC50 [1] does the source give for Brc1ccc(C2=Nn3cnnc3SC2)cc1 here?
A: 27.9 µM (active)

Q: What does the source list for O=[N+]([O-])c1ccccc1/C=C/C=N/Nc1ccc(S(=O)(=O)Nc2ccc(Cl)cc2)cc1[N+](=O)[O-]?
A: EC50 [2]: > 60 µM (not active); EC50 [3]: 1.35 µM (active)

Q: Which EC50 [6] does the source give for CCCCCCc1cc2cc(C(=N)NNC(=O)c3ccncc3)c(=O)oc2cc1O here?
A: 1.11 µM (active)

Q: Which EC50 [6] does the source give for CCOC(=O)c1cn(Cc2ccccc2)c(C(=O)OC(C)(C)C)c1O here?
A: 5.22 µM (active)

Q: For Cc1cc2c(cc1S(=O)(=O)CCC(=O)NC1CCCCC1C)OCC(=O)N2 (centres undefined), which EC50 [6] is on record?
A: > 53 µM (inactive)

Q: For CCN1CCc2c(C#N)c(NCc3ccccc3)nc(N(CC)CC)c2C1, which EC50 [2] is on record?
A: > 15 µM (not active)

Q: And the EC50 [3]?
A: 0.426 µM (active)

Q: Which AC50 [8] does the source give for CCOc1nn(-c2ccccc2)c(O)c1/C=N/c1ccc(Cl)cc1 here?
A: 20 µM (inconclusive)

Q: With Cn1c(=O)c(-c2cc(F)cc(F)c2)nc2cncnc21 as the molecule, how does the AC50 [8] read?
A: 1.26 µM (inconclusive)

Q: With CNc1ccnc(-c2ccccc2C)n1 as the molecule, how does the AC50 [8] read?
A: 15.8 µM (inconclusive)

Q: What about the AC50 ([7]; read-out: AC50) of the same molecule?
A: 31.6 µM (inconclusive)

Q: For COc1ccc(F)cc1C(=O)C1CCCN(Cc2cnc(N3CCCC3)s2)C1 (centres undefined), which EC50 [2] is on record?
A: > 60 µM (not active)

Q: And the EC50 [3]?
A: 0.303 µM (active)

Q: With CCOc1cc(/C=N/NC(N)=S)cc(Br)c1OCc1ccccc1C as the molecule, how does the EC50 [2] read?
A: > 60 µM (inconclusive)

Q: What about the EC50 [3] of the same molecule?
A: 0.114 µM (active)

Q: Which CC50 [1] does the source give for C[C@]12CCC3C(CCC4=C/C(=N/OCC(=O)NC(CCC(N)=O)C(=O)O)CC[C@@]43C)C1CCC2O (some centres undefined) here?
A: 22.6 µM (active)

Q: With CC1(C)CC(=O)C([C@H]2C3=C(CC(C)(C)CC3=O)Oc3ccccc32)C(=O)C1 as the molecule, how does the AC50 [8] read?
A: 15.8 µM (inconclusive)

Q: Which AC50 [8] does the source give for CC[C@@H]1OC(=O)[C@H](C)[C@H](O[C@@H]2C[C@](C)(OC)[C@H](O)[C@H](C)O2)[C@H](C)[C@H](O[C@@H]2O[C@@H](C)C[C@@H](N(C)C)[C@@H]2O)[C@](C)(O)C[C@H](C)C(=NOCOCCOC)[C@H](C)[C@H](O)[C@]1(C)O here?
A: 12.6 µM (inconclusive)

Q: With COc1cc(SC)ccc1C(=O)NCCc1c[nH]c2ccccc12 as the molecule, how does the CC50 [1] read?
A: 19.9 µM (active)

Q: Which EC50 [2] does the source give for Cc1c(CN2CCC(CO)(Cc3ccccc3)CC2)c2ccccc2n1C here?
A: 9.85 µM (active)

Q: And the EC50 [3]?
A: 2.4 µM (active)

Q: With c1ccc2c[n+](Cc3ccnc4ccccc34)ccc2c1 as the molecule, how does the AC50 [8] read?
A: 1.26 µM (inconclusive)

Q: Which CC50 [1] does the source give for CC1CCN(C(=O)CSc2nc3ccccc3c(=O)n2Cc2ccc3c(c2)OCO3)CC1 here?
A: 33.5 µM (active)

Q: For COC(=O)c1ccc(NC(S)=Nc2ccccn2)cc1, which CC50 [1] is on record?
A: 41.6 µM (active)

Q: Which EC50 [2] does the source give for CCn1c(NCc2cc(Br)ccc2NS(=O)(=O)c2ccc(C)cc2)nc2ccccc21 here?
A: > 60 µM (not active)

Q: And the EC50 [3]?
A: 2.61 µM (active)

Q: For Cc1ccccc1C(=O)Oc1ccc(Br)cc1C(=S)N1CCCC1, which AC50 [8] is on record?
A: 8.91 µM (inconclusive)

Q: For O=[N+]([O-])c1ccc(S(=O)(=O)NCC(c2ccco2)N2CCc3ccccc3C2)cc1 (centres undefined), which EC50 [2] is on record?
A: > 60 µM (not active)

Q: And the EC50 [3]?
A: 1.86 µM (active)

Q: Which EC50 [2] does the source give for COC(=O)Nc1nc(-c2cc(Cl)ccc2Cl)cs1 here?
A: > 60 µM (not active)

Q: What about the EC50 [3] of the same molecule?
A: 0.572 µM (active)

Q: With COc1ccc2cc(CN(Cc3cccnc3)Cc3nnnn3Cc3ccccc3)c(O)nc2c1 as the molecule, how does the EC50 [2] read?
A: > 60 µM (not active)

Q: And the EC50 [3]?
A: 0.554 µM (active)

Q: For CO[C@@H]1/C=C\O[C@]2(C)Oc3c(C)c(O)c4c(O)c(cc(O)c4c3C2=O)NC(=O)/C(C)=C\C=C/[C@H](C)[C@@H](O)[C@H](C)[C@H](O)[C@H](C)[C@H](OC(C)=O)[C@@H]1C, which AC50 [8] is on record?
A: 3.98 µM (inconclusive)

Q: What does the source list for Cc1nc(C(=O)NC2CCCCC2)sc1C1(C)CC(c2cccnc2)=NO1 (centres undefined)?
A: EC50 [2]: > 60 µM (not active); EC50 [3]: 1.3 µM (active)

Q: With CC(C)(C)c1ccc(OCC(=O)O)c(Cl)c1 as the molecule, how does the AC50 [7] read?
A: inconclusive

Q: For CC(C)OC(=O)c1ccc(N2CCN(c3ccc(F)cc3)CC2)nc1, which CC50 [1] is on record?
A: 14.8 µM (active)

Q: With O=C(Cn1cnc2ccccc21)NC(c1ccccc1)c1ccccc1 as the molecule, how does the AC50 ([7]; read-out: AC50) read?
A: 20 µM (inconclusive)

Q: For O=C(Nc1ccc(Br)cc1)c1c[nH]cn1, which EC50 [4] is on record?
A: 28.8 µM (active)

Q: What about the EC50 [5] of the same molecule?
A: 34.8 µM (active)

Q: For C[C@H]1O[C@@H](O[C@H]2CC[C@@]3(C)C(CC[C@]4(C)C3C=C[C@]35OC[C@@]6(CCC(C)(C)C[C@H]63)[C@@H](O)C[C@]54C)[C@]2(C)CO)[C@H](O)[C@@H](O[C@@H]2O[C@H](CO)[C@@H](O)[C@H](O)[C@H]2O)[C@H]1O (some centres undefined), which EC50 [6] is on record?
A: 9.4 µM (active)

Q: With O=C(NCCCN1CCOCC1)c1cc(C(=O)C2CC2)c[nH]1 as the molecule, how does the AC50 ([7]; read-out: AC50) read?
A: 3.98 µM (inconclusive)

Q: With CC(=O)Nc1ccc(-c2csc(NCCc3ccccc3)n2)cc1 as the molecule, how does the CC50 [1] read?
A: 41.3 µM (active)

Q: For C=C1CCC[C@]2(C)C[C@H]3OC(=O)C(CN(C)CC(OC)OC)[C@H]3CC12 (some centres undefined), which CC50 [1] is on record?
A: 11.4 µM (active)

Q: For Cc1ccn2cc(-c3cccc(NC(=O)c4cccs4)c3)nc2c1, which CC50 [1] is on record?
A: 26.1 µM (active)

Q: With CCCCCSc1nncc(O)n1 as the molecule, how does the AC50 ([7]; read-out: AC50) read?
A: 39.8 µM (inconclusive)

Q: For CC(=O)c1cccc(/N=C/C2=C(O)OC3(CCCCC3)OC2=O)c1, which AC50 [8] is on record?
A: 35.5 µM (inconclusive)

Q: What about the AC50 [7] of the same molecule?
A: inconclusive

Q: Which EC50 [2] does the source give for CCn1nc(C)c(NC(=O)/C=C/c2ccc(OC)c(COc3ccc(Cl)cc3Br)c2)c1C here?
A: > 60 µM (not active)

Q: What about the EC50 [3] of the same molecule?
A: 0.736 µM (active)

Q: Which results are given for COc1ccc(C2C(C(=O)c3ccc4c(c3)CC(C)O4)=C(O)C(=O)N2CCN2CCOCC2)cc1 (centres undefined)?
A: AC50 [8]: 28.2 µM (inconclusive); AC50 [7]: inconclusive

Q: For Cc1ccc(-c2csc3ncnc(NCCN4CCOCC4)c23)cc1, which AC50 [8] is on record?
A: 1.12 µM (inconclusive)

Q: Which AC50 [8] does the source give for CN(Cc1ccco1)c1nc(-c2ccccc2C(F)(F)F)nc2ccccc12 here?
A: 12.6 µM (inconclusive)

Q: Which AC50 [7] does the source give for C=CC[N+]1(CC#CCOC(c2ccccc2)c2ccccc2)CCOCC1.[Cl-] here?
A: inconclusive

Q: Which AC50 [8] does the source give for CN1CCN(CCCNC(=O)c2ccc(CSCc3cccc(Cl)c3)o2)CC1 here?
A: 22.4 µM (inconclusive)
